Experimental data reported in PubChem BioAssay AID1259345.
Calls of active or inactive are those of the source.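 The calls were made as follows: active = IC50 below a set limit; inactive = the rest.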

Target: A2780 TERC promoter luciferase reporter, 16 h
Assay: TERC promoter activity modulators, SAR follow-up, cell-based, luciferase reporter, human (AID 1259345)

SMILES	IC50
Cc1nc2cc(-c3cccc(Br)c3)nn2c(C)c1CCC(=O)O	inactive
Cc1nc2cc(-c3ccc(C#CCO)cc3)nn2c(C)c1CCC(=O)O	inactive
